Measurements published in ChEMBL document CHEMBL1159007, “Isolation and identification of xochitloldione and isoxochitlolone from Cnidosculus urens” (J Nat Prod, 1992).
Calls of active or inactive are those of the source. The calls are words filed in the database; no cut-off is given here.

Assays:
[1] = system: Escherichia coli; assay: Antimicrobial activity against Escherichia coli; assay type: functional, organism-based
[2] = system: Staphylococcus aureus; assay: Antimicrobial activity against Staphylococcus aureus; assay type: functional, organism-based

Cc1cc2c(cc1O)C=C1C=CCC(C)(C)[C@@H]1CC2=O
Activity [1]: Active | Activity [2]: Active
